Results from ChEMBL document CHEMBL4507299, “Data for DCP probe PF-04554878” (2021).

Tests used:
Details in all cases: Compound concentration 1.0 uM
[1] = target: Protein kinase C zeta type (Homo sapiens) (UniProt Q05513); test: PKCzeta Invitrogen kinase activity assay
[2] = target: Tyrosine-protein kinase Lck (Homo sapiens) (UniProt P06239); test: LCK Invitrogen kinase activity assay
[3] = target: Insulin receptor (Homo sapiens) (UniProt P06213); test: INSR Invitrogen kinase activity assay
[4] = target: T1, Serine/threonine-protein kinase TAO3 (Homo sapiens) (UniProt Q9H2K8); test: TAOK3 Invitrogen kinase activity assay
T1 sequence (whole entry): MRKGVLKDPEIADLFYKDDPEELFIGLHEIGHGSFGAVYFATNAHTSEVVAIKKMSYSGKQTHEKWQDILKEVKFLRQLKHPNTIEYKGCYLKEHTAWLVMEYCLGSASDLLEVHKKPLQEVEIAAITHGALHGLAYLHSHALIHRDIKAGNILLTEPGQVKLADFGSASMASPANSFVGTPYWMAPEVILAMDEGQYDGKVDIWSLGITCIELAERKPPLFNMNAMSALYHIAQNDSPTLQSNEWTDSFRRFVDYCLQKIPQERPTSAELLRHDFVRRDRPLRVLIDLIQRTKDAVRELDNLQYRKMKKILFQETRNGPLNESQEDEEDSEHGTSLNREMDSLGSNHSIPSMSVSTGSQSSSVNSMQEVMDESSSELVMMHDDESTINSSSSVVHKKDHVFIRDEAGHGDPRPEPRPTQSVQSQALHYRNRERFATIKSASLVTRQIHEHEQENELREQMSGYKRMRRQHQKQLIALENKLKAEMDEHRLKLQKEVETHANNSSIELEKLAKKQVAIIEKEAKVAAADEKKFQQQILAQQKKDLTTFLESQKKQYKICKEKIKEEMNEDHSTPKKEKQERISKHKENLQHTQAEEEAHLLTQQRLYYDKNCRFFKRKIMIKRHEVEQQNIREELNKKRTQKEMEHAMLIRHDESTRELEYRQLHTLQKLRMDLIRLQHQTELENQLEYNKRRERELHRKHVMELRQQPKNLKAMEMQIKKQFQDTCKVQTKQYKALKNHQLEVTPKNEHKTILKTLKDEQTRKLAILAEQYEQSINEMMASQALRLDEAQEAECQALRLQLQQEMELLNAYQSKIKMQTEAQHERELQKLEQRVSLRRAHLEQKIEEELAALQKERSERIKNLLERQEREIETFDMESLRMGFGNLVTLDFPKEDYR

Measured: inhibition

Chain of Protein kinase C zeta type (Homo sapiens) (Q05513 whole entry): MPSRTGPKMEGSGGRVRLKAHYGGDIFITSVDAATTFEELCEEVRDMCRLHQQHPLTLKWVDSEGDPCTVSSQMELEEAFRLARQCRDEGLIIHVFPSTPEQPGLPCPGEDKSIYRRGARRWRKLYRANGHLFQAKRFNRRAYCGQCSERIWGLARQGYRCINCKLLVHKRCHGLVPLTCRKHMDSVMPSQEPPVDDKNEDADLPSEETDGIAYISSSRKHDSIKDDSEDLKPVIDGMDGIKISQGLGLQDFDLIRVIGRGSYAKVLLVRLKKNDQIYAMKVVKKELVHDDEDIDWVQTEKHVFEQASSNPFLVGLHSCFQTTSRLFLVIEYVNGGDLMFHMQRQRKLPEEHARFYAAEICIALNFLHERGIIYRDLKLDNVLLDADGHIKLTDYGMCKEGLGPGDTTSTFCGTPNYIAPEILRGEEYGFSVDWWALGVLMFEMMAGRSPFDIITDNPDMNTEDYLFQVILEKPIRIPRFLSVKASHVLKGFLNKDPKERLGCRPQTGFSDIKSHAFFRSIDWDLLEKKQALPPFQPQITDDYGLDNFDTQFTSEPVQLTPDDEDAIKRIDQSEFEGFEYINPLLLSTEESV
Chain of Tyrosine-protein kinase Lck (Homo sapiens) (P06239 2-509 limits assumed): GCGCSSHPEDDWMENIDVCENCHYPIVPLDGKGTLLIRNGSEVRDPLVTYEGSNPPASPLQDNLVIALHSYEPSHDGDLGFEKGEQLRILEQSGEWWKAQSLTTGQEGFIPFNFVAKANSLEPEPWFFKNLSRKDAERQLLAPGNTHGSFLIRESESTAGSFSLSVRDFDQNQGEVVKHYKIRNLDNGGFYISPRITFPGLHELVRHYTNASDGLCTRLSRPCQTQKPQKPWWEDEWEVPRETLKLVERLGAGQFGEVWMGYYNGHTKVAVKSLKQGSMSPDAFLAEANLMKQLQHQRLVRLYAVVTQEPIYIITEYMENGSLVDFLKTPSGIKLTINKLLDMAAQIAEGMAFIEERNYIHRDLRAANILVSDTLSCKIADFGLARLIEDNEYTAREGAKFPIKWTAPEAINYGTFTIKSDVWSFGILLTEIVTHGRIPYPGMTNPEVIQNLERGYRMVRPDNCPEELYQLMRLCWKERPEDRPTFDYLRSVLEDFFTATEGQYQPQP
Chain of Insulin receptor (Homo sapiens) (P06213 28-758 limits assumed): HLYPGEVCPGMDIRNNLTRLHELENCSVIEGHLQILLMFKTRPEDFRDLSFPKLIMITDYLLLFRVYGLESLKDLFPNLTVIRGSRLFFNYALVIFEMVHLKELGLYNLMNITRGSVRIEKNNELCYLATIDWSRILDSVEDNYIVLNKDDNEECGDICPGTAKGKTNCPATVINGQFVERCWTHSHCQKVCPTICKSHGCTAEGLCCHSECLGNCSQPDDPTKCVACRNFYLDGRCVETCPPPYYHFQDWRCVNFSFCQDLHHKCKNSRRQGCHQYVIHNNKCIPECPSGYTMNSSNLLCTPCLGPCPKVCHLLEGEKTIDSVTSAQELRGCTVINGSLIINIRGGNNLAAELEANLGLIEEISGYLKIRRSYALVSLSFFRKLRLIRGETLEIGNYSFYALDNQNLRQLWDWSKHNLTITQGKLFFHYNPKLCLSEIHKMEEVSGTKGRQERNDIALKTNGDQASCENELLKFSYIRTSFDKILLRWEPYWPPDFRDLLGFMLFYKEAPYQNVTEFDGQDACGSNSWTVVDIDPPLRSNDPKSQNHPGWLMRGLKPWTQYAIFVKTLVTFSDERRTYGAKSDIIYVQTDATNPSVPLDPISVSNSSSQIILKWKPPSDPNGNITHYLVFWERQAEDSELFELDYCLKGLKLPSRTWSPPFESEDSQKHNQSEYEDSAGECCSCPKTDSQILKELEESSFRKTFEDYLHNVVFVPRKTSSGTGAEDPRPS
Chain of Insulin receptor (Homo sapiens) (P06213 763-1382 limits assumed): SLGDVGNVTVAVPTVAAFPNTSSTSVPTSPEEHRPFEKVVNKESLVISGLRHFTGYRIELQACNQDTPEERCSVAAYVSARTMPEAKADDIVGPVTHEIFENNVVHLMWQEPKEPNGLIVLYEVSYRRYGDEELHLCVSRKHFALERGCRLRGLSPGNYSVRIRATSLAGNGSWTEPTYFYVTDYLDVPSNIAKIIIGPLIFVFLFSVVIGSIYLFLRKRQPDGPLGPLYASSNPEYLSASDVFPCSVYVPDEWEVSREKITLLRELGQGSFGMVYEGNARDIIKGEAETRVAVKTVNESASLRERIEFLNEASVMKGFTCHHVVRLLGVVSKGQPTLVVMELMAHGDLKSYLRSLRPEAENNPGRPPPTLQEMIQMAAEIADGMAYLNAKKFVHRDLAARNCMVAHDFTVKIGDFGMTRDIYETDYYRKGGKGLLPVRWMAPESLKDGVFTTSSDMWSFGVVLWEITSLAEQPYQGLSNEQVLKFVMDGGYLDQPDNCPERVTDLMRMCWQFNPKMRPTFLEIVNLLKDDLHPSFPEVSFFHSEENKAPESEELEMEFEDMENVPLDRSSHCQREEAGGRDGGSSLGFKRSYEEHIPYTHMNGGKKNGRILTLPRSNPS

CNC(=O)c1ccc(Nc2ncc(C(F)(F)F)c(NCc3nccnc3N(C)S(C)(=O)=O)n2)cc1 [DEFACTINIB]
inactive: [1] 10% | [2] 39% | [3] 50% | [4] 66%
